According to patent US20020058244A1, “Method for detecting uracil biosynthesis inhibitors and their use as herbicides” (priority 2000, published 2002):

Key:
[1] = biological target: T1, OPRTase (Rattus norvegicus, UniProt A0ACM8Q7Z8); conditions: rat brain tissue; cited from earlier work
T1 construct: host or cells: rat brain tissue
T1 sequence (A0ACM8Q7Z8 1-481): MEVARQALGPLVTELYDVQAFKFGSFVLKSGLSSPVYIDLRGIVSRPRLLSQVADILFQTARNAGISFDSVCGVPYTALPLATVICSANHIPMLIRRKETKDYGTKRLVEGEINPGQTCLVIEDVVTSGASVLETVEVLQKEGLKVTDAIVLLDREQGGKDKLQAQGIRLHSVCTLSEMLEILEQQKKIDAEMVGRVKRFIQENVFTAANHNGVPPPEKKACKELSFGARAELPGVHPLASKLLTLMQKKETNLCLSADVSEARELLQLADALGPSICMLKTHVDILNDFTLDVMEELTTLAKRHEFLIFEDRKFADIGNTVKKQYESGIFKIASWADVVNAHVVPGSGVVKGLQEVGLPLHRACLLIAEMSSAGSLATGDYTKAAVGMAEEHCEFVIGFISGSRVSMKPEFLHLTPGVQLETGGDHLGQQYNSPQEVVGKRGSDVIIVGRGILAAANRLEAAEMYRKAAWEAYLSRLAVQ

[2] = biological target: uridine phosphorylase; conditions: salvage pathway; cited from earlier work
[3] = biological target: T2, ODCase (Rattus norvegicus, UniProt A0ACM8Q7Z8); conditions: rat brain tissue; cited from earlier work
T2 construct: host or cells: rat brain tissue

[4] = biological target: T3, dihyroorotate dehydrogenase (DHOD) (Rattus norvegicus, UniProt Q63707); conditions: rat brain tissue; cited from earlier work
T3 construct: host or cells: rat brain tissue
T3 sequence (Q63707 whole entry): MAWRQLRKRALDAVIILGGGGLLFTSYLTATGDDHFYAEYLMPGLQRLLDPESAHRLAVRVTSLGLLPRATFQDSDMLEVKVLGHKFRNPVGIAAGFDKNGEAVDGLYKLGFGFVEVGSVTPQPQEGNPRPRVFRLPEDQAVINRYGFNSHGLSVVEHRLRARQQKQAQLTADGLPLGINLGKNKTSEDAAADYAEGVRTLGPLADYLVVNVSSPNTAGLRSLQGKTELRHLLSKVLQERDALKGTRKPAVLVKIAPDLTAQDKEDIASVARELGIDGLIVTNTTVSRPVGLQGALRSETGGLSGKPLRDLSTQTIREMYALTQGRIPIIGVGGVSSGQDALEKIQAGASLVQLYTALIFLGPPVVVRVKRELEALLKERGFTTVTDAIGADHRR

[5] = tested on: OPRTase/ODCase; test: In vitro enzymatic conversion of [14C]-orotate to UMP, cell free extract from corn root tissue; type: biochemical
Protocol: Etiolated corn roots and shoots or soybean suspension cells were used as tissue. Corn seedlings were germinated on vermiculite for 4 days in the dark at 26_C. and roots and shoots harvested separately. The soybean cells were grown in media consisting of Muashige and Skoog salts (Physiol. Plant (1962) 15:473-497) purchased from Gibco/BRL, vitamins (glycine 2 mg/L, thiamine 0.1 mg/L, nicotinic acid 0.5 mg/L, pyridoxine-HCl 0.5 mg/L), myo-inositol (100 mg/L), 2,4-D ([…]), and 30 g/L sucrose. Cell cultures are grown at 25° C. with gentle shaking. Cultures were transfered every 7 days to new growth media.
Approximately 5-10 g plant tissue were ground in liquid nitrogen and resuspended in 1:2 (w/v) homogenization buffer (30 mM KPO4^−; 25 mM […], 5 mM MgCl2, 5 mM ascorbic acid, pH 7.2). The homogenate was centrifuged at 10,000 g for 20 min, and the supernatant desalted using BioRad columns. The desalted supernatant was used for OPRTase/ODCase enzyme assays. For DHOD enzyme extraction, the supernatant was further centrifuged at 100,000 g for 45 min to obtain a microsomal pellet. The microsomal pellet was resuspended in 3-4 ml resuspension buffer (70 mM Tris-base, pH 7.4) containing 1% Triton X-100.
All enzyme assays were performed according to Rawls, J. M. (1978) Anal. Biochem. 86 (1): 107-117 and Cleaveland et al. (1995). Biochem. Pharm. 49(7):947-954. Enzyme assays were performed in a total volume of 200 ul with 1 uM [^14C]carbamoyl aspartate, [^14C]dihydroorotate or [^14C]orotate as substrates, and 1-5 mM probe compound or barbiturate as inhibitors. The [^14C]carbamoyl aspartate and [^14C]dihydroorotate assay was performed using a potassium phosphate buffer, pH 7.4 with 12 mM NAD^+, and 10 mM MgCl2. […] Over time, 25 ul aliquots were taken from the reaction tube and boiled for 5 min to stop the reaction. Samples were spotted onto cellulose TLC plates and run using 0.1 M potassium phosphate buffer, 100% ammonium sulfate, and 1-propanol (10:6:1). Plates were developed using a TLC plate radioisotope detector. Orotate and UMP standards were run next to unknowns to identify the conversion of [^14C]orotate to [^14C]UMP in the enzyme assay.

[6] = tested on: whole plant; test: Whole plant injury by barbiturate; conditions: in vivo

In the case of `O=C1CC(=O)NC(=O)N1` [barbiturate, reference compound], the Ki [1] is given as 18 µM, the Ki [2] is given as 786 µM and the Ki [3] is given as 75 µM. For the same compound, the Ki [4] was 412 µM, the “inhibition of the conversion of orotic acid to UMP” value ([5]; 1 mM) was 80% and the “inhibition of the conversion of orotic acid to UMP” value ([5]; 2 mM) was 100%. The “radiolabeled orotate converted to UMP” value ([5]; 15 minutes after treatment, 100 μM PRPP, untreated control 55%) was 20%, the “inhibition of the conversion of [14C]-orotate to UMP” value ([5]; FIG. 10, concentration not stated) was 80% and the “effect on OPRTase/ODCase activity (conversion of [14C]-orotate to UMP)” value ([5]; cell free extract) was “inhibits”. For the same compound, the IC50 ([5]; corn root cell free extract, read-out: concentration at which there is 50% inhibition of UMP synthesis (IC50)) was under 270 µM and the whole plant injury [6] was “does not cause whole plant injury”.
